Assay results from patent publication US20240325398A1, “COMBINATION THERAPIES” (Infinity Pharmaceuticals, Inc., priority 2014, published 2024).

Assays:
HH = assay: Combination study, ATPLite 72 h, dose matrix (Synergy Score, CI50); assay type: cell-based; settings: combination with Compound 1
Method: The method is described as follows.
Additive effect is CI=1.0. […] Antagonistic effect is CI>1.0.
The Synergy Score is calculated as: […]

HBL-1 = assay: as above; settings: combination with Compound 1, 72 h
OCI-Ly3 = assay: as above; settings: combination with Compound 1; OCI-Ly3; 72 h
U-2932 = assay: as above; settings: combination with Compound 1, 72 h
TMD8 = assay: as above; settings: combination with Compound 1
OCI-Ly7 = assay: as above; settings: combination with Compound 1, 72 h
SU-DHL-4-epst = assay: as above; settings: combination with Compound 1, 72 h
Method: (§1) Cells are thawed from a liquid nitrogen preserved state. Once cells have been expanded and divide at their expected doubling times, screening begins. Cells are seeded in growth media in either black 1536-well or 384-well tissue culture treated plates. Cells are then equilibrated in assay plates via centrifugation and placed in incubators attached to the Dosing Modules at 37° C. for 24 hours before treatment. […] These Tzero (To) plates are read using ultra-sensitive luminescence on Envision plate readers (Perkin Elmer). Treated assay plates are incubated with compound for 72 hours. After 72 hours, plates are developed for endpoint analysis using ATPLite. All data points are collected via automated processes, quality controlled and analyzed using Zalicus software.
(§2) The measure of effect in the experiment can be the inhibition of cellular response relative to the untreated level (vehicle alone). […] The inhibition ranges from 0% at the untreated level to 100% when T=0. Inhibition levels are negative for agents that actually increase levels.
(§3) Growth Inhibition (GI) is used as a measure of cell viability. […] A GI reading of 100% represents complete growth inhibition—T72 compound-treated and T0 vehicle signals are matched. […] A GI reading of 200% represents complete death of all cells in the culture well. Compounds reaching an activity plateau of GI 200% are considered cytotoxic. GI is calculated by applying the following test and equation:
(§4) Combination analysis data were collected in a 6×6 dose matrix. Synergy is calculated by comparing a combination's response to those of its single compound, against the drug-with-itself dose-additive reference model. Deviations from dose additivity may be assessed visually on an isobologram or numerically with a Combination Index (CI). […] Additive effect is CI=1.0. […] Antagonistic effect is CI>1.0.
(§5) To measure combination effects in excess of Loewe additivity, a scalar measure to characterize the strength of synergistic interaction termed the Synergy Score is devised. The Synergy Score is calculated as:
(§6) The fractional inhibition for each component agent and combination point in the matrix is calculated relative to the median of all vehicle-treated control wells. The Synergy Score equation integrates the experimentally-observed activity volume at each point in the matrix in excess of a model surface numerically derived from the activity of the component agents using the Loewe model for additivity. Additional terms in the Synergy Score equation (above) are used to normalize for various dilution factors used for individual agents and to allow for comparison of synergy scores across an entire experiment. The inclusion of positive inhibition gating or an Idata multiplier removes noise near the zero effect level, and biases results for synergistic interactions at that occur at high activity levels.
(§7) Loewe Volume (Loewe Vol) is used to assess the overall magnitude of the combination interaction in excess of the Loewe additivity model. Loewe Volume is particularly useful when distinguishing synergistic increases in a phenotypic activity (positive Loewe Volume) versus synergistic antagonisms (negative Loewe Volume). […] This model defines additivity as a non-synergistic combination interaction where the combination dose matrix surface should be indistinguishable from either drug crossed with itself. The calculation for Loewe additivity is:

DOHH-2 = assay: as above; settings: combination with Compound 1, 72 h
Method: as §1, §2, §3, §4, §5, §6, §7

Farage = assay: as above; settings: combination with Compound 1
SU-DHL-10-epst = assay: as above; settings: combination with Compound 1, 72 h
RL = assay: as above; settings: combination with Compound 1, 72 h
KARPAS-422 = assay: as above; settings: combination with Compound 1, 72 h
WSU-NHL = assay: as above; settings: combination with Compound 1, 72 h
KARPAS-299 = assay: as above; settings: combination with Compound 1
GRANTA-519 = assay: as above; settings: combination with Compound 1
Jeko-1 = assay: as above; settings: combination with Compound 1
Method: as §1
(§8) where T is treated cell count and V is untreated (vehicle) cell count (at 72 hours). I ranges from 0% (when T=V) to 100% (when T=0). […] The measure of effect in the experiment can be the inhibition of cellular response relative to the untreated level (vehicle alone). […] The inhibition ranges from 0% at the untreated level to 100% when T=0. Inhibition levels are negative for agents that actually increase levels. Other effect measures, such as an activity ratio r=T/V may be more appropriate for some assays. When activity ratios (e.g, fold increase over stimulated control) are being used, the effect can be measured using an induction 1=ln(T/V). With this definition, all effect expressions are the same as for inhibition.
as §3, §4, §5, §6
(§9) Loewe Volume (Loewe Vol) is used to assess the overall magnitude of the combination interaction in excess of the Loewe additivity model. Loewe Volume is particularly useful when distinguishing synergistic increases in a phenotypic activity (positive Loewe Volume) versus synergistic antagonisms (negative Loewe Volume). […] This model defines additivity as a non-synergistic combination interaction where the combination dose matrix surface should be indistinguishable from either drug crossed with itself.

Mino = assay: as above; settings: combination with Compound 1
NCI-H929 = assay: as above; settings: combination with Compound 1
Method: as §1, §8, §3, §4, §5, §6, §9

[1] = as above; settings: combination with Compound 1; OPM-2
OMP-2 = assay: as above; settings: combination with Compound 1; OPM-2
RPMI-8226 = assay: as above; settings: combination with Compound 1

CO[C@H]1C[C@@H]2CC[C@@H](C)[C@@](O)(O2)C(=O)C(=O)N2CCCC[C@H]2C(=O)O[C@H]([C@H](C)C[C@@H]2CC[C@@H](OCCO)[C@H](OC)C2)CC(=O)[C@H](C)/C=C(\C)[C@@H](O)[C@@H](OC)C(=O)[C@H](C)C[C@H](C)/C=C/C=C/C=C/1C [everolimus, dihydroxy-12-[(2R)-1-[(1S,3R,4R)-4-(2-hydroxyethoxy)-3-methoxycyclohexyl]propan-2-yl]-19,30-dimethoxy-15,17,21,23,29,35-hexamethyl-11,36-dioxa-4-azatricyclo[30.3.1.0]hexatriaconta-16,24,26,28-tetraene-2,3,10,14,20-pentone]
CI50 growth inhibition (HH): S (S=0.01 to <0.5) | CI50 inhibition (HH): S (S=0.01 to <0.5) | Synergy Score growth inhibition (HH): A3 (A3=>3) | Synergy Score inhibition (HH): A2 (A2=1 to <3) | CI50 growth inhibition (HBL-1): T (T=0.5 to <0.7) | CI50 inhibition (HBL-1): U (U=0.7 to <1) | Synergy Score growth inhibition (HBL-1): A2 (A2=1 to <3) | Synergy Score inhibition (HBL-1): A1 (A1=0.0001 to <1) | CI50 growth inhibition (OCI-Ly3): U (U=0.7 to <1) | Synergy Score growth inhibition (OCI-Ly3): A2 (A2=1 to <3) | Synergy Score inhibition (OCI-Ly3): A1 (A1=0.0001 to <1) | CI50 growth inhibition (U-2932): S (S=0.01 to <0.5) | Synergy Score growth inhibition (U-2932): A2 (A2=1 to <3) | Synergy Score inhibition (U-2932): A2 (A2=1 to <3) | CI50 growth inhibition (TMD8; TMD8, 72 h): T (T=0.5 to <0.7) | CI50 inhibition (TMD8; TMD8, 72 h): S (S=0.01 to <0.5) | Synergy Score growth inhibition (TMD8; TMD8, 72 h): A3 (A3=>3) | Synergy Score inhibition (TMD8; TMD8, 72 h): A3 (A3=>3) | effect of the combination (isobologram) (TMD8; TMD8 DLBCL cell line, FIG. 1-3): synergistic effect | CI50 growth inhibition (OCI-Ly7): S (S=0.01 to <0.5) | CI50 inhibition (OCI-Ly7): W (W=≥1) | Synergy Score growth inhibition (OCI-Ly7): A2 (A2=1 to <3) | Synergy Score inhibition (OCI-Ly7): A2 (A2=1 to <3) | CI50 growth inhibition (SU-DHL-4-epst): S (S=0.01 to <0.5) | CI50 inhibition (SU-DHL-4-epst): S (S=0.01 to <0.5) | Synergy Score growth inhibition (SU-DHL-4-epst): A3 (A3=>3) | Synergy Score inhibition (SU-DHL-4-epst): A3 (A3=>3) | CI50 growth inhibition (DOHH-2): S (S=0.01 to <0.5) | CI50 inhibition (DOHH-2): S (S=0.01 to <0.5) | Synergy Score growth inhibition (DOHH-2): A3 (A3=>3) | Synergy Score inhibition (DOHH-2): A3 (A3=>3) | effect of the combination (isobologram) (Farage; Farage DLBCL cell line, FIG. 4-5): synergistic effect | CI50 growth inhibition (Farage; Farage, 72 h): T (T=0.5 to <0.7) | CI50 inhibition (Farage; Farage, 72 h): S (S=0.01 to <0.5) | Synergy Score growth inhibition (Farage; Farage, 72 h): A3 (A3=>3) | Synergy Score inhibition (Farage; Farage, 72 h): A3 (A3=>3) | CI50 growth inhibition (SU-DHL-10-epst): S (S=0.01 to <0.5) | CI50 inhibition (SU-DHL-10-epst): S (S=0.01 to <0.5) | Synergy Score growth inhibition (SU-DHL-10-epst): A3 (A3=>3) | Synergy Score inhibition (SU-DHL-10-epst): A3 (A3=>3) | CI50 growth inhibition (RL): T (T=0.5 to <0.7) | CI50 inhibition (RL): S (S=0.01 to <0.5) | Synergy Score growth inhibition (RL): A2 (A2=1 to <3) | Synergy Score inhibition (RL): A2 (A2=1 to <3) | CI50 growth inhibition (KARPAS-422): W (W=≥1) | CI50 inhibition (KARPAS-422): S (S=0.01 to <0.5) | Synergy Score growth inhibition (KARPAS-422): A2 (A2=1 to <3) | Synergy Score inhibition (KARPAS-422): A2 (A2=1 to <3) | CI50 growth inhibition (WSU-NHL): T (T=0.5 to <0.7) | CI50 inhibition (WSU-NHL): S (S=0.01 to <0.5) | Synergy Score growth inhibition (WSU-NHL): A3 (A3=>3) | Synergy Score inhibition (WSU-NHL): A3 (A3=>3) | CI50 growth inhibition (KARPAS-299): U (U=0.7 to <1) | CI50 inhibition (KARPAS-299): W (W=≥1) | Synergy Score growth inhibition (KARPAS-299): A1 (A1=0.0001 to <1) | Synergy Score inhibition (KARPAS-299): A1 (A1=0.0001 to <1) | CI50 growth inhibition (GRANTA-519): S (S=0.01 to <0.5) | Synergy Score growth inhibition (GRANTA-519): A2 (A2=1 to <3) | Synergy Score inhibition (GRANTA-519): A1 (A1=0.0001 to <1) | CI50 growth inhibition (Jeko-1): T (T=0.5 to <0.7) | CI50 inhibition (Jeko-1): U (U=0.7 to <1) | Synergy Score growth inhibition (Jeko-1): A2 (A2=1 to <3) | Synergy Score inhibition (Jeko-1): A2 (A2=1 to <3) | CI50 growth inhibition (Mino): T (T=0.5 to <0.7) | CI50 inhibition (Mino): U (U=0.7 to <1) | Synergy Score growth inhibition (Mino): A2 (A2=1 to <3) | Synergy Score inhibition (Mino): A2 (A2=1 to <3) | CI50 growth inhibition (NCI-H929): S (S=0.01 to <0.5) | CI50 inhibition (NCI-H929): T (T=0.5 to <0.7) | Synergy Score growth inhibition (NCI-H929): A3 (A3=>3) | Synergy Score inhibition (NCI-H929): A2 (A2=1 to <3) | CI50 growth inhibition [1]: S (S=0.01 to <0.5) | CI50 inhibition (OMP-2): W (W=≥1) | Synergy Score growth inhibition (OMP-2): A2 (A2=1 to <3) | Synergy Score inhibition (OMP-2): A2 (A2=1 to <3) | CI50 growth inhibition (RPMI-8226): U (U=0.7 to <1) | CI50 inhibition (RPMI-8226): W (W=≥1) | Synergy Score growth inhibition (RPMI-8226): A2 (A2=1 to <3) | Synergy Score inhibition (RPMI-8226): A1 (A1=0.0001 to <1)
